From patent US4588725A, “2-piperazinyl-quinazoline derivatives and pharmaceutical compositions containing them” (Sandoz Ltd., priority 1982, dated 1986)

Key:
[1] = system: sleep/wake cycle (sleep phase II, paradoxical sleep); assay: sleep/wake cycle in rats; format: in vivo
Method: Furthermore, the compounds on administration of 2-20 mg/kg p.o. to rats increase the sleep phase II and decrease the paradoxical sleep in the sleep/wake cycle carried out in accordance with the principles of H. Kleinlogel et al., European J. Pharmacol. 33, 159-163 (1975). […]

locomotion = assay: inhibition of locomotion in mice; format: in vivo, mice (male, OF-1); settings: Mus musculus, po, minimum dose with significant inhibition, p.o., 1 hour after administration, read-out: Locomotor inhibition EDmin
Method: In particular, the compounds of formula I are useful as neuroleptic agents in the treatment of e.g. psychotic disorders such as schizophrenia, as indicated in standard tests, e.g. by an inhibition of locomotion in mice. In this test groups of 3 male mice (18-24 g, OF-1, Sandoz Basle) received 3.2, 10, 32, 100 and […]. of the test drug. 1 hour after drug administration the mice were observed individually and their locomotion compared with that of control. The locomotion of the animals was observed and the EDmin (the minimum dose at which significant inhibition was observed) determined.

[2] = target: T1, 3H-spiperone binding sites (Bos taurus, UniProt P20288); assay: 3H-spiperone binding in calf brain striatal tissue; settings: for IC50: calf striatal membranes, 0.1 nM 3H-spiperone, 5×10^-7 M cinanserin, pH 7.7, 40 min room temperature, read-out: Receptor binding IC50 3H-spiperone; for effect in the 3H-spiperone binding test compared with Clozapine: in words, versus Clozapine
T1 construct: fresh calf brain striatal tissue was homogenized; from tissue; host or cells: calf brain striatum, membranes
Method: The compounds of the invention bind further on ^3 H-spiperone binding sites in the brain [modified method of J. Leysen et al., Biochem. Pharmac. […] The test was performed as follows: fresh calf brain striatal tissue was homogenized in the 25 fold volume of tris buffer (pH 7.4, 50 mM, 120 mM sodium chloride) and centrifuged. The pellets were suspended in the 22 fold volume of tris buffer, incubated for 15 minutes at 37° C. and centrifuged. The pellets were suspended in the 300 fold volume of tris buffer. […] After incubation for 40 minutes at room temperature, the assay mixtures were rapidly filtered through Whatman GF/B filter, the filters washed twice with 5 ml of ice cold tris buffer and scintillation-counted.

[3] = system: blood pressure or heart rate; assay: blood pressure / heart rate in anaesthetized normotonic rats; format: in vivo, female normotonic rats (Sprague-Dawley); settings: Rattus norvegicus, iv, cumulative i.v. doses, by interpolation, read-out: ED75 (dose required to reduce the blood pressure or the heart rate to 75% of pretreatment values)
Method: In another test female normotonic rats (200-350 g, Sprague-Dawley, Suddeutsche Tierfarm, Tuttlingen, FRG) were anaesthetized with urethane (1.5-1.75 g/kg i.p. in 2 portions) and a tracheal cannula was inserted. Blood pressure and heart rate were recorded from the carotid artery by conventional methods. Test drugs were administered by the jugular or the femoral vein. Body temperature was maintained at 34° C. by means of a temperature regulator (Alfos MK-4) triggered by a thermistor on the animal. After adaptation, increasing doses of the test drug were injected i.v. to give the following cumulative doses: 3, 13, 43, 143, 343 and 1443 μg/kg. ED 75% is the dose required to reduce the blood pressure or the heart rate to 75% of pretreatment values. It was obtained through interpolation. The ED75 of the Example 3a compound is 524 μg/kg i.v.

α1-receptors = assay: 3H-Prazosin binding assay for α1-receptors in calf brain cortex tissue; settings: calf brain cortex membranes, 0.3 nM 3H-Prazosin, pH 7.7, 40 min room temperature; read-out: IC50 (inhibition of specific 3H-Prazosin binding)
Method: The compounds of the invention are furthermore useful as anti-hypertensive agents, as indicated in standard tests, for example in the ^3 H-Prazosin binding assay for α1 -receptors [modified method of Greengrass P., et al., Eur. J. Pharmac. 55, 323-326 (1979)]. The test was performed as follows:
Fresh calf brain cortex tissue is homogenized in a 20 fold volume of Tris-HCl buffer (50 mM, pH 7.7), using a Polytron PT 20, and centrifuged at 30,000×g for 25 min. The pellets are resuspended in a 13 fold volume of the same buffer, incubated for 15 min at 37° C., and recentrifuged at 50,000×g for 11 min. The pellets of this centrifugation are frozen at -20° C. and resuspended in a 60 fold volume of the same buffer as above before use for the binding experiment. The composition of the assay mixtures (total volume=2 ml) is as follows: 50 mM Tris-HCl pH 7.7, membranes corresponding to 30 mg of original tissue weight, and 0.3 nM ^3 H-Prazosin. The assays for the definition of nonspecific binding additionally contain phentolamine at a concentration of 10 μM. To assess the potency of drugs in inhibiting specific ^3 H-Prazosin binding (difference between total and nonspecific binding), the test compounds are added to give 5 to 9 different concentrations between 1 nM and 10 μM, each in duplicate. […] The radioactivity of the filters is estimated by scintillation counting.

T1 sequence (P20288 whole entry): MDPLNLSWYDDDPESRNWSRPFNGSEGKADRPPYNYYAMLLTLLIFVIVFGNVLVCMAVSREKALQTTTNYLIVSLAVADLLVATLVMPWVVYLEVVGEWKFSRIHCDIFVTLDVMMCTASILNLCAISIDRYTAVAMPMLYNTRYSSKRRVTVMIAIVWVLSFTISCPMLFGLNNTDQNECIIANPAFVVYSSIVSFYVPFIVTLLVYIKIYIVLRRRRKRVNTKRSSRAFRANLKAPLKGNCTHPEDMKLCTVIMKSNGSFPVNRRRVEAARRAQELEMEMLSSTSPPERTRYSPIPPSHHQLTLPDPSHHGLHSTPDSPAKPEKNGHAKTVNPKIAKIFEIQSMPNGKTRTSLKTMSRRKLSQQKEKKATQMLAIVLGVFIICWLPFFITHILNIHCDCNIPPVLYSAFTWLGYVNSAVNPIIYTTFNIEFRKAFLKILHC

Structure (SMILES) | Sleep phase II ([1]; 10 mg/kg po) | paradoxical sleep ([1]; 10 mg/kg po) | minimal effective dose (locomotion) [mg/kg] | IC50 [2] [nM] | effect in the 3H-spiperone binding test compared with Clozapine [2] | Sleep phase II ([1]; 3.2 mg/kg po) | paradoxical sleep ([1]; 3.2 mg/kg po) | ED75 [3] [mg/kg] | IC50 (α1-receptors) [nM]
O=C(CCCN1CCN(c2nc(-c3ccccc3)c3ccccc3n2)CC1)c1ccc(F)cc1 [Example 3e] | 607 % of control | 9 % of control | < 3.2 | 342 | stronger effects in the ^3 H-spiperone binding test than Clozapine | – | – | – | –
O=C(CCCN1CCN(c2ncc3ccccc3n2)CC1)c1ccc(F)cc1 [Example 1, 4-[4-(Quinazolin-2-yl)-1-piperazinyl]-1-(4-fluorophenyl)-1-butanone] | – | – | 3.3 | 344 | stronger effects in the ^3 H-spiperone binding test than Clozapine | 171 % of control | 92 % of control | – | –
CN1CCN(C2=Nc3cc(Cl)ccc3Nc3ccccc32)CC1 [clozapine, reference compound] | 483 % of control | 26 % of control | 3.2 | – | – | – | – | – | –
Cc1nc(N2CCN(CCCC(=O)c3ccc(F)cc3)CC2)nc2ccccc12 [Example 3a] | – | – | – | – | – | – | – | 0.524 | 3.5
